# Test results from ChEMBL document CHEMBL1201862, “PubChem BioAssay data set” (2004).
# Where a name gives a salt, the structure may show the parent alone.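 48-hour exposure; five concentrations; linearly interpolated endpoints. Abbreviation: GI50, concentration required for 50% inhibition of growth.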 The source made the active and inactive calls. Cut-off read from the data, not from the text of the source: active = GI50 up to about 1.1 µM and inactive = higher.
# Legend:
# Experiment in all cases: NCI anticancer screen, dose series, 48 h
# RPMI-8226 = test system: RPMI-8226
# NCI-H522 = test system: NCI-H522
# KM12 = test system: KM12
# OVCAR-4 = test system: OVCAR-4
# HCC 2998 = test system: HCC 2998
# SF-268 = test system: SF-268
# HT-29 = test system: HT-29
# Malme-3M = test system: Malme-3M
# ACHN = test system: ACHN
# COLO 205 = test system: COLO 205
# TK-10 = test system: TK-10
# K562 = test system: K562
# UACC-62 = test system: UACC-62
# U-251 = test system: U-251
# A549 = test system: A549
# HCT-116 = test system: HCT-116
# SK-OV-3 = test system: SK-OV-3
SMILES,GI50 (RPMI-8226),GI50 (NCI-H522),GI50 (KM12),GI50 (OVCAR-4),GI50 (HCC 2998),GI50 (SF-268),GI50 (HT-29),GI50 (Malme-3M),GI50 (ACHN),GI50 (COLO 205),GI50 (TK-10),GI50 (K562),GI50 (UACC-62),GI50 (U-251),GI50 (A549),GI50 (HCT-116),GI50 (SK-OV-3)
C[Si](C)(C)c1ccc(-c2sc(-c3ccc([Si](C)(C)C)s3)c3c2C[Si]2(C3)Cc3c(-c4ccc([Si](C)(C)C)s4)sc(-c4ccc([Si](C)(C)C)s4)c3C2)s1,> 100 µM (inactive),> 100 µM (inactive),> 100 µM (inactive),> 100 µM (inactive),> 100 µM (inactive),> 100 µM (inactive),> 100 µM (inactive),> 100 µM (inactive),> 100 µM (inactive),> 100 µM (inactive),> 100 µM (inactive),> 100 µM (inactive),> 100 µM (inactive),> 100 µM (inactive),> 100 µM (inactive),> 100 µM (inactive),> 100 µM (inactive)
CN(C)C(=S)/N=c1\ssc(=S)n1C1CCCCC1,,13.1 µM (inactive),35.7 µM (inactive),39.4 µM (inactive),37.1 µM (inactive),32.4 µM (inactive),35.7 µM (inactive),23.4 µM (inactive),35.9 µM (inactive),,> 100 µM (inactive),16.9 µM (inactive),10.4 µM (inactive),17 µM (inactive),22.8 µM (inactive),16.5 µM (inactive),> 100 µM (inactive)
Nc1ccc(C(=O)CC2(O)C(=O)Nc3ccccc32)cc1 (stereo not drawn),> 100 µM (inactive),29.7 µM (inactive),,> 100 µM (inactive),,> 100 µM (inactive),> 100 µM (inactive),> 100 µM (inactive),> 100 µM (inactive),> 100 µM (inactive),> 100 µM (inactive),> 100 µM (inactive),> 100 µM (inactive),,> 100 µM (inactive),> 100 µM (inactive),> 100 µM (inactive)
Cc1[nH]c2ccccc2c1C(=O)CC1(O)C(=O)Nc2ccccc21 (stereo not drawn),> 100 µM (inactive),,> 100 µM (inactive),> 100 µM (inactive),> 100 µM (inactive),> 100 µM (inactive),> 100 µM (inactive),,> 100 µM (inactive),> 100 µM (inactive),> 100 µM (inactive),> 100 µM (inactive),> 100 µM (inactive),> 100 µM (inactive),> 100 µM (inactive),> 100 µM (inactive),> 100 µM (inactive)
COc1ccc(C(C#N)NNC(=O)c2ccccc2O)cc1OC (stereo not drawn),4.24 µM (inactive),3.28 µM (inactive),0.807 µM (active),1.7 µM (inactive),,0.468 µM (active),30.1 µM (inactive),11.7 µM (inactive),0.384 µM (active),35.6 µM (inactive),14.6 µM (inactive),0.356 µM (active),0.31 µM (active),0.45 µM (active),0.377 µM (active),0.401 µM (active),0.889 µM (active)
CC(NC(C)(C)C)C(=O)c1cccc(Cl)c1 (stereo not drawn) [BUPROPION HYDROCHLORIDE],> 100 µM (inactive),> 100 µM (inactive),> 100 µM (inactive),> 100 µM (inactive),> 100 µM (inactive),> 100 µM (inactive),> 100 µM (inactive),> 100 µM (inactive),> 100 µM (inactive),> 100 µM (inactive),> 100 µM (inactive),> 100 µM (inactive),> 100 µM (inactive),> 100 µM (inactive),> 100 µM (inactive),> 100 µM (inactive),> 100 µM (inactive)
CC1CC2(CCC1OCc1ccccc1)OCCO2 (stereo not drawn),> 100 µM (inactive),> 100 µM (inactive),> 100 µM (inactive),> 100 µM (inactive),> 100 µM (inactive),,> 100 µM (inactive),> 100 µM (inactive),,> 100 µM (inactive),> 100 µM (inactive),> 100 µM (inactive),> 100 µM (inactive),> 100 µM (inactive),> 100 µM (inactive),> 100 µM (inactive),> 100 µM (inactive)
Nn1c(-c2cccc(Cl)c2)nc2ccccc2c1=O,> 100 µM (inactive),> 100 µM (inactive),> 100 µM (inactive),> 100 µM (inactive),> 100 µM (inactive),> 100 µM (inactive),> 100 µM (inactive),> 100 µM (inactive),> 100 µM (inactive),> 100 µM (inactive),> 100 µM (inactive),> 100 µM (inactive),> 100 µM (inactive),> 100 µM (inactive),> 100 µM (inactive),> 100 µM (inactive),> 100 µM (inactive)
N#C/C(=C1\N=NC(N)=C(c2ccc(Cl)cc2)C1=O)c1ccc(Cl)cc1,> 100 µM (inactive),> 100 µM (inactive),> 100 µM (inactive),> 100 µM (inactive),> 100 µM (inactive),> 100 µM (inactive),> 100 µM (inactive),> 100 µM (inactive),> 100 µM (inactive),> 100 µM (inactive),> 100 µM (inactive),> 100 µM (inactive),> 100 µM (inactive),> 100 µM (inactive),> 100 µM (inactive),> 100 µM (inactive),> 100 µM (inactive)
CCOC(=O)C1=C(C)CC2C(=O)OC(=O)C2C1(C)C (stereo not drawn),> 100 µM (inactive),> 100 µM (inactive),> 100 µM (inactive),,> 100 µM (inactive),> 100 µM (inactive),> 100 µM (inactive),> 100 µM (inactive),> 100 µM (inactive),> 100 µM (inactive),> 100 µM (inactive),> 100 µM (inactive),,> 100 µM (inactive),> 100 µM (inactive),,> 100 µM (inactive)
COC(=O)C1C(=O)NC2(C)CC1c1ccccc1O2 (stereo not drawn),> 100 µM (inactive),> 100 µM (inactive),> 100 µM (inactive),> 100 µM (inactive),> 100 µM (inactive),> 100 µM (inactive),> 100 µM (inactive),> 100 µM (inactive),> 100 µM (inactive),,> 100 µM (inactive),> 100 µM (inactive),> 100 µM (inactive),> 100 µM (inactive),> 100 µM (inactive),> 100 µM (inactive),> 100 µM (inactive)
C[n+]1cc(C(O)c2ccc3c(c2)OCO3)c2ccccc2c1 (stereo not drawn),13.9 µM (inactive),16 µM (inactive),38.3 µM (inactive),,37.8 µM (inactive),28.6 µM (inactive),51.2 µM (inactive),25.4 µM (inactive),29.1 µM (inactive),33.2 µM (inactive),36.8 µM (inactive),25.1 µM (inactive),22.9 µM (inactive),27 µM (inactive),33.3 µM (inactive),28.4 µM (inactive),45.5 µM (inactive)
CC(=O)OCC(OC(C)=O)C(OC(C)=O)C(OC(C)=O)C(=O)CNn1c(-c2ccccc2Cl)nc2ccccc2c1=O (stereo not drawn),76 µM (inactive),> 100 µM (inactive),> 100 µM (inactive),> 100 µM (inactive),,> 100 µM (inactive),> 100 µM (inactive),> 100 µM (inactive),> 100 µM (inactive),> 100 µM (inactive),,> 100 µM (inactive),> 100 µM (inactive),> 100 µM (inactive),> 100 µM (inactive),> 100 µM (inactive),> 100 µM (inactive)
Cc1cccc2[s+]snc12,> 42.4 µM (inactive),18.4 µM (inactive),> 100 µM (inactive),> 100 µM (inactive),> 100 µM (inactive),> 100 µM (inactive),> 100 µM (inactive),30.5 µM (inactive),63.5 µM (inactive),23.9 µM (inactive),> 100 µM (inactive),24.9 µM (inactive),> 100 µM (inactive),> 100 µM (inactive),> 100 µM (inactive),> 59.4 µM (inactive),> 100 µM (inactive)
CC(=O)CC(=O)OC1CC(C)CCC1C(C)C (stereo not drawn),15 µM (inactive),39.7 µM (inactive),37.8 µM (inactive),54.5 µM (inactive),41.4 µM (inactive),45.7 µM (inactive),30 µM (inactive),40.7 µM (inactive),> 100 µM (inactive),96.2 µM (inactive),> 100 µM (inactive),16 µM (inactive),69.2 µM (inactive),47 µM (inactive),35.3 µM (inactive),13.5 µM (inactive),> 100 µM (inactive)
Cc1nc2c(n1CCO)C(=O)c1ccccc1C2=O,,14.5 µM (inactive),37.7 µM (inactive),26.2 µM (inactive),41.4 µM (inactive),32.5 µM (inactive),25.9 µM (inactive),11.8 µM (inactive),25.1 µM (inactive),18.9 µM (inactive),> 100 µM (inactive),25.6 µM (inactive),16.5 µM (inactive),26.5 µM (inactive),29.4 µM (inactive),18.9 µM (inactive),> 100 µM (inactive)
CC1=C2[C@@H](c3ccccc3)C3C=CC2(c2ccccc23)N(C(=O)Nc2cccc3ccccc23)C1=O (stereo partly drawn),> 100 µM (inactive),,> 100 µM (inactive),> 100 µM (inactive),> 100 µM (inactive),> 100 µM (inactive),,> 100 µM (inactive),> 100 µM (inactive),> 100 µM (inactive),,> 100 µM (inactive),> 100 µM (inactive),> 100 µM (inactive),> 100 µM (inactive),> 100 µM (inactive),> 100 µM (inactive)
